Source: patent publication US20250205200A1, “5-METHOXY-N,N-[…][…] THE TREATMENT OF […]” (GH RESEARCH IRELAND LIMITED, priority 2022, published 2025)

System: patients with postpartum depression (PPD)
Test: Clinical trial of inhaled 5-MeO-DMT (individualized dosing regimen) in postpartum depression; one patient, 6 mg then 12 mg
Conditions: n=1; for BPRS Blunted affect improvement / BPRS Blunted affect score / BPRS Conceptual disorganization improvement / BPRS Conceptual disorganization score / BPRS Disorientation improvement / BPRS Disorientation score / BPRS Grandiosity improvement / BPRS Grandiosity score / BPRS Hallucinatory behaviour improvement / BPRS Hallucinatory behaviour score / BPRS Hostility improvement / BPRS Hostility score / BPRS Mannerisms and Posturing improvement / BPRS Mannerisms and Posturing score / BPRS Motor retardation improvement / BPRS Motor retardation score / BPRS Suspiciousness improvement / BPRS Suspiciousness score / BPRS Uncooperativeness improvement / BPRS Uncooperativeness score / BPRS Unusual Thought Content improvement / BPRS Unusual Thought Content score: baseline 1; for BPRS Excitement improvement / BPRS Excitement score: baseline 2; for BPRS Anxiety improvement / BPRS Anxiety score: baseline 7
Experimental: The single-arm, open-label clinical trial will involve 15 adult female patients with clinically diagnosed postpartum depression (PPD).
The second dose (12 mg) will only be administered if: • a. […] The 6 mg dose was safe and well-tolerated according to the investigator, • c. Any psychoactive effects (PsE) of the prior dose have subsided, and • d. Pre-dose vital parameters and forced expiratory volume in one second (FEV1) are in normal range, or if outside of the normal range, are not clinically significant according to the investigator. • 3. Similarly, a third dose (18 mg) will only be administered if: • a. […] The 12 mg dose was safe and well-tolerated according to the investigator, and • c. Any PsE of the prior dose have subsided, and • d. Pre-dose vital parameters and forced expiratory volume in one second (FEV1) are in normal range, or if outside of the normal range, are not clinically significant according to the investigator.
The patients will be assessed for a peak psychedelic experience (based on a patient-scored visual analogue scale, the PE scale), sedation, and other endpoints after dosing.
Follow-up visits are planned for Day 1, and Day 7 after the dosing day.
The following criteria must be met by all patients considered for clinical trial participation: • 1. Is female and in the age range between 18 and 45 years (inclusive) at screening. • 2. Has a body mass index (BMI) in the range of 18.5 and 35 kg/m^2 (inclusive) at screening. • 3. Meets the trial criteria for PPD as assessed by a trial psychiatrist or registered psychologist: • a. Diagnosis of Major Depressive Disorder without psychotic features, confirmed by the Mini-International Neuropsychiatric Interview (MINI), with peri-partum onset that began no earlier than gestation and no later than the first 4 weeks postpartum. • b. Has a Montgomery-Åsberg Depression Rating Scale (MADRS) total score of equal to or greater than 28 at screening and pre-dose on Day 0. • 6. […] Patients must have a negative pregnancy test at screening and on the pre-test day (Day −1). • 5. Is willing to delay start of other antidepressant or anxiety medication until after the end of the trial at Day 7 and agrees to keep any psychotherapy unchanged during the trial.
A potential patient who meets any of the following key exclusion criteria will be excluded from participation in this trial: • 1. Has, based on history, psychiatric assessment, and evaluation of the MINI, a current or prior diagnosis of bipolar disorder, a manic or hypomanic episode, a psychotic disorder, Major Depressive Disorder (MDD) or other mood disorder with psychotic features, obsessive compulsive disorder, post-traumatic stress disorder (PTSD), autism spectrum disorder, borderline personality disorder, schizophrenia, delusional disorder, paranoid personality disorder, schizoaffective disorder, clinically significant intellectual disability, or any other psychiatric comorbidity that renders the patient unsuitable for the trial according to the investigator's judgment. • 2. Has one or more first or second degree relatives with a current or previously diagnosed bipolar disorder, psychotic disorder or other mood disorder (including MDD) with psychotic features. • 3. Is in the judgement of a trial psychiatrist or registered psychologist, at significant risk for suicide based on history, psychiatric assessment, and evaluation of suicidal ideation and suicidal behaviour based on the Columbia-Suicide Severity Rating Scale (C-SSRS). • 4. Has taken anti-depressive medication within 14 days or 5 half-lives (whichever is longer) prior to dosing (exception: within the last 5 weeks in the case of fluoxetine). • 5.

COc1ccc2[nH]cc(CCN(C)C)c2c1 [5-MeO-DMT]
MADRS Suicidal Thoughts improvement (Day 7, baseline 0): 0 | MADRS Suicidal Thoughts score (Day 7, baseline 0): 0 | BPRS Blunted affect improvement (Day 7): 0 | BPRS Blunted affect score (Day 7): 1 | BPRS Conceptual disorganization improvement (Day 7): 0 | BPRS Conceptual disorganization score (Day 7): 1 | BPRS Disorientation improvement (Day 7): 0 | BPRS Disorientation score (Day 7): 1 | BPRS Grandiosity improvement (Day 7): 0 | BPRS Grandiosity score (Day 7): 1 | BPRS Hallucinatory behaviour improvement (Day 7): 0 | BPRS Hallucinatory behaviour score (Day 7): 1 | BPRS Hostility improvement (Day 7): 0 | BPRS Hostility score (Day 7): 1 | BPRS Mannerisms and Posturing improvement (Day 7): 0 | BPRS Mannerisms and Posturing score (Day 7): 1 | BPRS Motor retardation improvement (Day 7): 0 | BPRS Motor retardation score (Day 7): 1 | BPRS Suspiciousness improvement (Day 7): 0 | BPRS Suspiciousness score (Day 7): 1 | BPRS Uncooperativeness improvement (Day 7): 0 | BPRS Uncooperativeness score (Day 7): 1 | BPRS Unusual Thought Content improvement (Day 7): 0 | BPRS Unusual Thought Content score (Day 7): 1 | BPRS Excitement improvement (Day 7): 1 | BPRS Excitement score (Day 7): 1 | MADRS Inability to Feel improvement (Day 7, baseline 3): 3 | MADRS Inability to Feel score (Day 7, baseline 3): 0 | MADRS Lassitude improvement (Day 7, baseline 3): 3 | MADRS Lassitude score (Day 7, baseline 3): 0 | MADRS Pessimistic Thoughts improvement (Day 7, baseline 4): 4 | MADRS Pessimistic Thoughts score (Day 7, baseline 4): 0 | MADRS Reported sadness improvement (Day 7, baseline 4): 4 | MADRS Reported sadness score (Day 7, baseline 4): 0 | BPRS Emotional withdrawal improvement (Day 7, baseline 5): 4 | BPRS Emotional withdrawal score (Day 7, baseline 5): 1 | MADRS Apparent sadness improvement (Day 7, baseline 5): 5 | MADRS Apparent sadness score (Day 7, baseline 5): 0 | MADRS Inner Tension improvement (Day 7, baseline 5): 4 | MADRS Inner Tension score (Day 7, baseline 5): 1 | MADRS Reduced Sleep improvement (Day 7, baseline 5): 5 | MADRS Reduced Sleep score (Day 7, baseline 5): 0 | BPRS Depressive Mood improvement (Day 7, baseline 6): 5 | BPRS Depressive Mood score (Day 7, baseline 6): 1 | BPRS Guilt feelings improvement (Day 7, baseline 6): 5 | BPRS Guilt feelings score (Day 7, baseline 6): 1 | BPRS Somatic Concern improvement (Day 7, baseline 6): 5 | BPRS Somatic Concern score (Day 7, baseline 6): 1 | BPRS Tension improvement (Day 7, baseline 6): 5 | BPRS Tension score (Day 7, baseline 6): 1 | BPRS Anxiety improvement (Day 7): 6 | BPRS Anxiety score (Day 7): 1 | BIMF functional domain Adjustment % improvement (Day 7 vs Day 0): 20.00% | BIMF functional domain Adjustment Δ (Day 7 vs Day 0): 1 | BIMF functional domain Infant Care % improvement (Day 7 vs Day 0): 0.00% | BIMF functional domain Infant Care Δ (Day 7 vs Day 0): 0 | BIMF functional domain Management % improvement (Day 7 vs Day 0): 18% | BIMF functional domain Management Δ (Day 7 vs Day 0): 5 | BIMF functional domain Mother-Child Interaction Δ (Day 7 vs Day 0): 2 | BIMF functional domain Psychological Well-being Δ (Day 7 vs Day 0): 9 | BIMF functional domain Self-Care % improvement (Day 7 vs Day 0): 44% | BIMF functional domain Self-Care Δ (Day 7 vs Day 0): 4 | BIMF functional domain Social Support Δ (Day 7 vs Day 0): 1 | BIMF item 10 (I trust my own feelings (instincts) when taking care of my baby) Δ (Day 7 vs Day 0): 1 | BIMF item 11 (I take a little time each week to do something for myself) Δ (Day 7 vs Day 0): 1 | BIMF item 16 (I worry about how other people judge me (as a mother)) Δ (Day 7 vs Day 0): 2 | BIMF total score percentage improvement (Day 7 vs Day 0 (92 to 105)): 14% | BPRS Blunted affect improvement (Discharge): 0 | BPRS Blunted affect score (Discharge): 1 | BPRS Conceptual disorganization improvement (Discharge): 0 | BPRS Conceptual disorganization score (Discharge): 1 | BPRS Disorientation improvement (Discharge): 0 | BPRS Disorientation score (Discharge): 1 | BPRS Grandiosity improvement (Discharge): 0 | BPRS Grandiosity score (Discharge): 1 | BPRS Hallucinatory behaviour improvement (Discharge): 0 | BPRS Hallucinatory behaviour score (Discharge): 1 | BPRS Hostility improvement (Discharge): 0 | BPRS Hostility score (Discharge): 1 | BPRS Mannerisms and Posturing improvement (Discharge): 0 | BPRS Mannerisms and Posturing score (Discharge): 1 | BPRS Motor retardation improvement (Discharge): 0 | BPRS Motor retardation score (Discharge): 1 | BPRS Suspiciousness improvement (Discharge): 0 | BPRS Suspiciousness score (Discharge): 1 | BPRS Uncooperativeness improvement (Discharge): 0 | BPRS Uncooperativeness score (Discharge): 1 | BPRS Unusual Thought Content improvement (Discharge): 0 | BPRS Unusual Thought Content score (Discharge): 1 | BPRS Excitement improvement (Discharge): 1 | BPRS Excitement score (Discharge): 1 | BPRS Emotional withdrawal improvement (Discharge, baseline 5): 4 | BPRS Emotional withdrawal score (Discharge, baseline 5): 1 | BPRS Depressive Mood improvement (Discharge, baseline 6): 5 | BPRS Depressive Mood score (Discharge, baseline 6): 1 | BPRS Guilt feelings improvement (Discharge, baseline 6): 5 | BPRS Guilt feelings score (Discharge, baseline 6): 1 | BPRS Somatic Concern improvement (Discharge, baseline 6): 5 | BPRS Somatic Concern score (Discharge, baseline 6): 1 | BPRS Tension score (Discharge, baseline 6): 1 | BPRS Anxiety improvement (Discharge): 6 | BPRS Anxiety score (Discharge): 1 | Changes in vital parameters (shortly after administration): temporary, clinically non-relevant increase in heart rate and blood pressure
